Source: ChEMBL document CHEMBL1146427, “Identification of the novel antimicrobial fatty acid (5Z,9Z)-14-methyl-5,9-pentadecadienoic acid in Eunicea succinea” (J Nat Prod, 1997)
≈ marks a conversion by molar mass, not a printed value.

Legend:
Staphylococcus aureus = assay: Antibacterial activity against Staphylococcus aureus ATCC 25923 after overnight incubation; type: functional, organism-based
Enterococcus faecalis = assay: Antibacterial activity against Streptococcus faecalis group D ATCC 29212 after overnight incubation; type: functional, organism-based
Pseudomonas aeruginosa = assay: Antibacterial activity against Pseudomonas aeruginosa ATCC 27853 after overnight incubation; type: functional
Escherichia coli = assay: Antibacterial activity against Escherichia coli ATCC 25922 after overnight incubation; type: functional

Q: `CC(C)CCC/C=C\CC/C=C\CCCC(=O)O` was tested. Which IC50 (Staphylococcus aureus) did it give?
A: 36 µg/mL (≈ 143 µM)

Q: And the MIC (Staphylococcus aureus)?
A: 240 µM (≈ 60.6 µg/mL)

Q: And the IC50 (Enterococcus faecalis)?
A: < 10 µg/mL

Q: And the MIC (Enterococcus faecalis)?
A: 160 µM (≈ 40.4 µg/mL)

Q: What about the MIC (Pseudomonas aeruginosa) of the same molecule?
A: > 100 µg/mL

Q: What about the MIC (Escherichia coli) of the same molecule?
A: > 100 µg/mL
